# ChEMBL document CHEMBL1201862, “PubChem BioAssay data set” (2004)
# Activity calls are given as the source filed them.
# Key:
# [1] = target: T1, Corticotropin-releasing factor receptor 2/Corticotropin-releasing factor-binding protein (Homo sapiens, UniProt P24387+Q13324); assay: Dose Response confirmation of uHTS hits for small molecule antagonists of the CRF-binding protein and CRF-R2 receptor complex.; type: functional; details: read-out: IC50_Mean
# T1 sequence (Q13324 whole entry): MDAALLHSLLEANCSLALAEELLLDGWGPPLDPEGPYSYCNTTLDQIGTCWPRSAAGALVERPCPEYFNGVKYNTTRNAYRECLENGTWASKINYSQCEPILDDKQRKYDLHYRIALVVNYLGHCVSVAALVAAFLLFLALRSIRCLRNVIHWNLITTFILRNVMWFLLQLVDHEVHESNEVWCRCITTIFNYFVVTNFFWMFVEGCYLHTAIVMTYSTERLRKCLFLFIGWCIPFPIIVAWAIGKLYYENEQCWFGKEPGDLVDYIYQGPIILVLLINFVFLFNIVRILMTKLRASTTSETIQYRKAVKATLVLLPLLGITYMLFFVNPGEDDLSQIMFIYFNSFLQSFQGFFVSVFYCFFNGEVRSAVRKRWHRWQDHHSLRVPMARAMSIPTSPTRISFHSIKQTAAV
# T1 sequence (P24387 whole entry): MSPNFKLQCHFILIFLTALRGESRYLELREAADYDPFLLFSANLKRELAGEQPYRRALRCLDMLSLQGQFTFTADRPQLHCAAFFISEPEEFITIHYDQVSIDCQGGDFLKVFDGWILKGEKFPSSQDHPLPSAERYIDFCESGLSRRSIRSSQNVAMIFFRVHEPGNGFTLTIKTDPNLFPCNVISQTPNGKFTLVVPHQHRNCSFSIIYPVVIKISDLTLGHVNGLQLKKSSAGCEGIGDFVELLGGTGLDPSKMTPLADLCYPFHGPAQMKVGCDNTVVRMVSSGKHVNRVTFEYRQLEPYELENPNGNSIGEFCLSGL
# [2] = target: T1, Corticotropin-releasing factor receptor 2/Corticotropin-releasing factor-binding protein; assay: activators of CRF receptor 2 with binding protein – uHTS hits, confirmation (AID 602473); type: functional; details: read-out: EC50_Mean
# [3] = target: T2, Replicative DNA helicase DnaB (Mycobacterium tuberculosis, UniProt P9WMR3); assay: DnaB intein splicing inhibitors, dose response, biochemical, cell-free fluorescence (AID 449749); type: functional
# T2 sequence (P9WMR3 whole entry): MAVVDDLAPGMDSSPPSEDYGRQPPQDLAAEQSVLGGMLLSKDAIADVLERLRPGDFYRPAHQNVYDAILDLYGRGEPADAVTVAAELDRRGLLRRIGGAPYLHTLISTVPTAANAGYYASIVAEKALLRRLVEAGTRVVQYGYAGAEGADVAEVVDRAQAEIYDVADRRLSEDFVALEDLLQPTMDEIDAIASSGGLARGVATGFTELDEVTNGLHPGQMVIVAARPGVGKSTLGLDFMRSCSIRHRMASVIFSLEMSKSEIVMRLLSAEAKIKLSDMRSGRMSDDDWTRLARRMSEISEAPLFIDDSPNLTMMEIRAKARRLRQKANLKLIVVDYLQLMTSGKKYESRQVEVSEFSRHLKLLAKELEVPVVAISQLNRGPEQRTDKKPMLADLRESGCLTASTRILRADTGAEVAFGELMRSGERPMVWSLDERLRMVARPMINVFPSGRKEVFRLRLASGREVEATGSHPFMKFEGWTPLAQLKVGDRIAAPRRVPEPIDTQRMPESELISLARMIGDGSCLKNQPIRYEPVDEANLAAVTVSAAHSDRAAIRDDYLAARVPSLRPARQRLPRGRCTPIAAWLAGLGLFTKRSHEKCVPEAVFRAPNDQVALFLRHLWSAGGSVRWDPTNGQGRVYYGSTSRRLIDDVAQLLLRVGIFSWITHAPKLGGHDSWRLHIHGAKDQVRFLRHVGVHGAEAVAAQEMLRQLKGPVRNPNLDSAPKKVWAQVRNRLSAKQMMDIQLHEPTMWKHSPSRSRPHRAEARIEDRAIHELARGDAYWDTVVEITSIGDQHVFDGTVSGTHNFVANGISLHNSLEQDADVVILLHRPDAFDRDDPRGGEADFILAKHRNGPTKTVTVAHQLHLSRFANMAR
# Protein RecA = target: T3, Protein RecA (Mycobacterium tuberculosis, UniProt P9WHJ3); assay: Fluorescence Cell-Free Homogeneous Dose Retest to Identify Inhibitors of RecA-Intein Splicing Activity. [Related pubchem assays (depositor defined):AID2097, AID2223, AID489010, AID492950]; type: functional
# T3 sequence (P9WHJ3 whole entry): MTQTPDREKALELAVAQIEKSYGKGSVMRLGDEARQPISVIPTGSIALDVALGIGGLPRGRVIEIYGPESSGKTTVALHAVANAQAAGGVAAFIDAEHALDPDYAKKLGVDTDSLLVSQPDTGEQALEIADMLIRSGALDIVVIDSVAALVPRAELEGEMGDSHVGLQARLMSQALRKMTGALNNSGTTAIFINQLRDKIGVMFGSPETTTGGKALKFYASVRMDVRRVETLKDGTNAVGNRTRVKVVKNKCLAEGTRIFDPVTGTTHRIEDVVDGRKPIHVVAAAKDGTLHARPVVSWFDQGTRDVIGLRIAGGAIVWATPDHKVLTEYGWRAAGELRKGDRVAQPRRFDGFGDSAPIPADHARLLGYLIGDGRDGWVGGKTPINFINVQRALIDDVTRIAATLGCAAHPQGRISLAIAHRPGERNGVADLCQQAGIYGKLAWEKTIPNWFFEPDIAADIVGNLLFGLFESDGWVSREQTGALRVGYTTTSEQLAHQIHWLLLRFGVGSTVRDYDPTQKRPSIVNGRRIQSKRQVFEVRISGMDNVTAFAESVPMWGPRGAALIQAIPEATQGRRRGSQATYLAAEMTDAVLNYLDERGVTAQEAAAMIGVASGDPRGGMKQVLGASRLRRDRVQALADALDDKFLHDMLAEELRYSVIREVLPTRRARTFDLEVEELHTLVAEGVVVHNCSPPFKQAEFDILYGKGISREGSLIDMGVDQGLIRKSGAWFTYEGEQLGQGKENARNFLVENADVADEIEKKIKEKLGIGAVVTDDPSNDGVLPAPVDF
# Vero = assay: cells; type: functional; details: Chlorocebus sabaeus
# [4] = control 3'UTR Renilla luciferase suppression, dose response, counter-screen for Shn3 inhibitor project, cell-based, Clone20-Shn3RL, cherry-picked (AID 624133); type: functional
# [5] = HepG2 cell cytotoxicity, dose response, cytotoxicity control for Shn3 inhibitor project, CellTiter-Glo, cherry-picked (AID 624134); type: functional, cell-based
# [6] = Shn3 3'UTR reporter inhibitors, dose response, cell-based, Clone20 osteoblasts, firefly luciferase, cherry-picked (AID 624132); type: functional;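 further: firefly luciferase luminescence from reporter carrying the Shn3 3'UTR in osteoblasts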
# INS1 = assay: beta cell apoptosis inhibitors, cytokine rescue, dose response, luminescence, retest (AID 449756); type: functional, cell-based; details: Rattus norvegicus;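 further: cell death triggered by IL-1 beta plus TNF-alpha plus IFN-gamma mixture; protective hits raise ATP signal compared with cytokine alone wells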
# [7] = target: T4, Calpain-2 catalytic subunit (Sus scrofa, UniProt P43367); assay: pig calpain II inhibitor potency, dose response, biochemical, fluorogenic peptide substrate (AID 1420); type: functional
# T4 sequence (P43367 whole entry): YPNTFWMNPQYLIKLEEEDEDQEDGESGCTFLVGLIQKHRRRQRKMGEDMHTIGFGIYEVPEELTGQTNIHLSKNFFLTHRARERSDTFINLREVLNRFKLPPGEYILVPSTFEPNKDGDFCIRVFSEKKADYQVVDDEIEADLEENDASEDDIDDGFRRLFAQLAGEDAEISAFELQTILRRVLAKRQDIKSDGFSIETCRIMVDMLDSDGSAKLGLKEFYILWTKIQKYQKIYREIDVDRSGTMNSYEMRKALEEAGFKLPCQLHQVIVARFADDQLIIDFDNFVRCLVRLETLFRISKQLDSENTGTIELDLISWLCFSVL
# [8] = target: T5, Heat shock factor protein 1 (Mus musculus, UniProt P38532); assay: inhibition of MG132-induced HSE-luciferase signal, confirmation, cell-based, NIH3T3, luminescence, dose retest (AID 2382); type: functional;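 further: NIH3T3 fibroblasts with HSF1-driven luciferase reporter stressed by proteasome inhibitor MG132; luminescence from HSF1-driven luciferase expression after 8 hours of MG132 stress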
# T5 sequence (P38532 whole entry): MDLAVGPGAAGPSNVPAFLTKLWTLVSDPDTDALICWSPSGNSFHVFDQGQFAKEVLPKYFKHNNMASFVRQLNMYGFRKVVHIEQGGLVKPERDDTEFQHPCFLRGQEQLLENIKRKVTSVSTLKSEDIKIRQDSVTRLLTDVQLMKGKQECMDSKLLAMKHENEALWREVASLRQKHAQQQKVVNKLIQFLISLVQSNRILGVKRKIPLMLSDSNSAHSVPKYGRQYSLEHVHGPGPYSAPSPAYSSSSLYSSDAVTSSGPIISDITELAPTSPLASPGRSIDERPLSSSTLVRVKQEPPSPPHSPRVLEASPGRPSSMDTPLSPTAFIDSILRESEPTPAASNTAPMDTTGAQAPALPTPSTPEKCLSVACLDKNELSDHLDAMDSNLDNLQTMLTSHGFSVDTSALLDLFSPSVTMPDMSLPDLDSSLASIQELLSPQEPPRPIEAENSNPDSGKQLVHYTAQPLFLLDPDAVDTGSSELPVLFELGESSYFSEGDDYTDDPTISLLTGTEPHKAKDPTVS
# Streptokinase A = target: T6, Streptokinase A (Streptococcus pyogenes serotype M1, UniProt P10520); assay: S. pyogenes streptokinase expression inhibitors, potency, dose response, plasminogen activation absorbance, OD405 (AID 1914); type: functional, Streptococcus pyogenes M1 GAS;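 further: secreted streptokinase activity via plasminogen activation per viability signal from cell pellet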
# T6 sequence (P10520 whole entry): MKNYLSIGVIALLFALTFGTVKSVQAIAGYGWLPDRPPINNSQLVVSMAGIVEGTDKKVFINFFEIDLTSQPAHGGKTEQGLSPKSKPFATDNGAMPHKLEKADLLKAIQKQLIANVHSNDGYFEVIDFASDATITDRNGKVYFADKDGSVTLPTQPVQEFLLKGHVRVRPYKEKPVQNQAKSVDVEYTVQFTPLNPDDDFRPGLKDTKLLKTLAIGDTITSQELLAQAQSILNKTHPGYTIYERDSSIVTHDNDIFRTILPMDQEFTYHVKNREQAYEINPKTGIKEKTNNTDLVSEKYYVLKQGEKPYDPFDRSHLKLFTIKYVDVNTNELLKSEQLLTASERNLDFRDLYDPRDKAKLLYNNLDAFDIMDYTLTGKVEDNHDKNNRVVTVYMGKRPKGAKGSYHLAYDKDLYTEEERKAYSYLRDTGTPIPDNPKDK
# [9] = tested on: Streptococcus sp. 'group A'; assay: growth inhibition of control SK(-) GAS strain, dose response, counter-screen for streptokinase expression inhibitor project, luminescence, kanamycin, BacTiterGlo, confirmation (AID 1900); type: functional, organism-based
# Streptococcus = assay: Group A Streptococcus viability loss, dose response, counter-screen for streptokinase expression inhibitor project, luminescence, BacTiterGlo (AID 1915); type: functional, organism-based;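 further: potency for reduction of bacterial viability or growth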
smiles,measurement,setting,value
COc1ccc(C)cc1S(=O)(=O)N1CCN(S(=O)(=O)c2cc(C)ccc2OC)CC1,IC50,[1],> 47.1 µM (inactive)
same,EC50,[2],> 53 µM (inactive)
CC1CCCC(C)N1C(=O)COC(=O)COc1ccc(C#N)cc1 (stereo not given),IC50,[1],> 47.1 µM (inactive)
same,EC50,[2],> 53 µM (inactive)
Cc1c(N2C(=O)C3C4C=CC(C5CC45)C3C2=O)c(=O)n(-c2ccccc2)n1C (stereo not given),IC50,[1],> 47.1 µM (inactive)
same,EC50,[2],> 53 µM (inactive)
N#CCc1ccc(NS(=O)(=O)c2cccs2)cc1,IC50,[1],> 47.1 µM (inactive)
same,EC50,[2],> 53 µM (inactive)
O=C(CCl)N1N=C(c2ccco2)CC1c1ccco1 (stereo not given),AC50,[3],> 380 µM (inactive)
same,EC50,Protein RecA,9.97 µM (active)
same,CC50,Vero,9.82 µM (active)
CC1C(=O)N(Cc2cn(CCC3OCCCO3)nn2)CCS(=O)(=O)N1Cc1ccc(-c2ccc(Cl)c(Cl)c2)cc1 (stereo not given),AC50,[4],2.7 µM (active)
same,AC50,[5],> 70 µM (inactive)
same,AC50,[6],3.39 µM (active)
O=C(NNC(=O)c1cccc(S(=O)(=O)N2CCc3ccccc32)c1)c1ccccc1,AC50,[4],3.89 µM (active)
same,AC50,[5],46.2 µM (active)
same,AC50,[6],1.52 µM (active)
Cc1ccc(C)c(-c2csc(NC(=O)C3=COCCO3)n2)c1,AC50,INS1,7.19 µM (active)
COc1cccc(-c2ccc(NC(=O)C3CCCN(Cc4cnn(C(C)C)c4)C3)cc2)c1 (stereo not given),CC50,Vero,> 25 µM (active)
C[C@H](NC(=O)c1ncn2c1c(O)nc1ccc(Br)cc12)c1ccccc1,AC50,[4],16.2 µM (active)
same,AC50,[5],9.3 µM (active)
same,AC50,[6],8.76 µM (active)
Cc1ccccc1N=C(S)Nc1cccc2cnccc12,AC50,INS1,> 260 µM (inactive)
Nn1c(SCC(=O)NC(=O)Nc2ccc3c(c2)OCCO3)nnc1C1CC1,IC50,[7],9.49 µM (not active)
C/C(=N\NC(N)=S)c1ccncc1,AC50,INS1,> 260 µM (inactive)
O=C(OCCN1C(=O)c2ccccc2C1=O)c1ccc(S(=O)(=O)N2CCCCCC2)cc1,IC50,[7],> 50 µM (not active)
CC(C)(C)c1ccc(OCCNC(=S)Nc2ccccc2)cc1,IC50,[7],8.08 µM (not active)
Cc1cccc2c(C(=O)N3CCN(c4ccccn4)CC3)cc(-c3cccc(Br)c3)nc12,EC50,[8],> 195 µM (not active)
same,AC50,[5],45.4 µM (active)
same,AC50,INS1,3.73 µM (active)
same,AC50,[6],6.48 µM (active)
COc1cccc(NC(S)=NN=C2CCCCCC2)c1,IC50,[7],> 50 µM (not active)
same,EC50,Streptokinase A,> 150 µM (not active)
same,EC50,[9],17.5 µM (active)
same,EC50,Streptococcus,> 150 µM (not active)
CC(=O)N1CCN(C(=O)CCc2cc(C(C)(C)C)c(O)c(C(C)(C)C)c2)CC1,AC50,[4],14.5 µM (active)
same,AC50,[6],4.46 µM (active)
Cc1cc(C)c(S(=O)(=O)Nc2ccc3c(c2)CCC3)c(C)c1,IC50,[7],11.4 µM (not active)
CC(=O)Nc1ccc(S(=O)(=O)N2CCN(c3nnnn3-c3ccccc3)CC2)cc1,IC50,[1],> 47.1 µM (inactive)
same,EC50,[2],> 53 µM (inactive)
CCCN(CCC)C(=O)CC(c1ccccc1)c1cc(Br)ccc1O (stereo not given),IC50,[7],16 µM (not active)
CC(C)Nc1nnc(Sc2ccc(Cl)cc2[N+](=O)[O-])s1,EC50,[8],> 195 µM (not active)
same,IC50,[7],4.91 µM (not active)
CC(C)CCNC(=O)C12CN(Cc3ccccc3)CC1C(c1ccc([N+](=O)[O-])cc1)=NO2 (stereo not given),IC50,[7],7.38 µM (not active)
CC(C)(C)N(Cc1ccccc1)C(=O)CCc1ccccc1,IC50,[7],32.5 µM (not active)
